Assay results as given in patent US9511042B2, “N-acyl amino acid derivatives for treating skin conditions such as cellulite” (HELIX BIOMEDIX INC., priority 2010, dated 2016).

Experiments:
3T3-L1 adipocytes [1] = experiment: Lipolysis: free fatty acid release in differentiated adipocytes (BioVision Free Fatty Acid Quantification Kit); type: cell-based, murine; settings: 100 μg/ml, overnight; for free fatty acids production in adipocytes relative to known lipolysis inducers (FIG. 4): compared with carnitine, resveratrol, isoproterenol, aminophylline, theophylline, caffeine
Method: The degree of fatty acid release can be used to gauge the relative level of glycerol release given this correlation. The following methods were used to determine the effect of 4-methyl-2-(octanoylamino) pentanoic acid and N-isopentyloctanamide on lipolysis in adipocytes.
(§1) The induction of lipolysis in differentiated adipocytes was determined in 3T3-L1 adipocytes using a fatty acid assay kit manufactured by BioVision (Mountain View, Calif.) (Free Fatty Acid Quantification Kit, Cat. No. K612-100). Free fatty acid release correlates with an increase in the level of glycerol. Adipocytes for these assays were prepared as follows. 3T3-L1 murine pre-adipocytes were purchased from the American Type Culture Collection (ATCC) (CL-173™). The cells were cultured in complete medium (ATCC-formulated Dulbecco's Modified Eagle's Medium supplemented with 10% bovine calf serum) and allowed to reach 100% confluence. The induction of differentiation or adipogenesis was carried out in complete medium. On day 0, cells were treated with complete medium containing induction agents (100 μg/ml isobutylmethyxanthine (Sigma, St. Louis, Mo.), 5 μg/ml insulin and 2 μg/ml dexamethasone). On day 3, cells were changed to complete medium containing 5 μg/ml insulin and incubated for 2-3 days. Then, cells were maintained in complete medium for 3-6 days when the majority of cells developed observable intracellular lipid droplets.
For analyzing the effects of 4-methyl-2-(octanoylamino) pentanoic acid and N-isopentyloctanamide on lipolysis, cells (adipocytes prepared above) were treated with either of these compounds at 100 μg/ml. Alternatively, cells were treated overnight with certain substances (e.g., resveratrol, isoproterenol, aminophylline, theophylline) (100 μg/ml) previously known to be lipolysis inducers. Supernatant from each of the cultures was measured for relative glycerol release as estimated using the free fatty acid quantification kit from BioVision following the manufacturer's instructions.

3T3-L1 adipocytes [2] = experiment: Cytotoxicity to adipocytes at the concentrations used to stimulate lipolysis; type: cell-based, murine; settings: at the concentrations used to stimulate lipolysis (data not shown)
Excerpt: Both HB2031 and HB2032 were not cytotoxic to 3T3-L1 adipocytes at the concentrations used to simulate lipolysis (data not shown).

EpiDerm™ Skin Model = experiment: EpiDerm MTT assay for cytotoxicity toward skin tissue; type: cell-based; settings: for cell viability (OD570) compared to the glycerin vehicle: 100 μg/ml, 2, 5 and 18 hour incubation (FIG. 7); for toxicity to skin tissue: 1 mg/ml for 24 hours (data not shown)
3T3-L1 preadipocytes = experiment: Adipogenesis assay, Oil red O staining of lipid droplets (Cayman Adipogenesis Assay Kit); type: cell-based, murine
Method: as §1
Intracellular lipid droplet production in adipocytes is a feature of adipogenesis. Therefore, adipogenesis was monitored by staining for lipid droplets in cells using the Adipogenesis Assay Kit from Cayman (Ann Arbor, Mich.) following the manufacture's instructions. […]

Compound | free fatty acids production compared with isoproterenol, assay in triplicate (FIG. 5) (3T3-L1 adipocytes [1]) | free fatty acids production in adipocytes relative to known lipolysis inducers (FIG. 4) (3T3-L1 adipocytes [1]) | cytotoxicity to 3T3-L1 adipocytes (3T3-L1 adipocytes [2]) | cell viability (OD570) compared to the glycerin vehicle (EpiDerm™ Skin Model) | toxicity to skin tissue (EpiDerm™ Skin Model) | differentiation of cells into adipocytes (enlarged cells, intracellular lipid droplets) (3T3-L1 preadipocytes; 100, 150, 200 μg/ml with adipogenesis inducers for nine days, concentration dependent (FIG. 6C-E)) | intensity of cellular lipid formation (Oil red O staining) (3T3-L1 preadipocytes; low concentration (FIG. 6C, 100 μg/ml), nine days)
CCCCCCCC(=O)NC(CC(C)C)C(=O)O (stereo not drawn) [HB2031, 4-methyl-2-(octanoylamino) pentanoic acid] | significantly more active than isoproterenol | to a higher degree than all the other compounds tested | not cytotoxic | no difference in cell viability | no toxicity |  | 
CCCCCCCC(=O)NCCC(C)C [HB2032, N-isopentyloctanamide] | significantly more active than isoproterenol | to a higher degree than all the other compounds tested | not cytotoxic | no difference in cell viability | no toxicity | inhibited the differentiation of cells into adipocytes | significantly reduced
